Source: patent US9101632B2, “Kinase inhibitors, prodrug forms thereof and their use in therapy” (AUCKLAND UNISERVICES LIMITED, priority 2009, dated 2015)
Like-named read-outs stand apart in the source and are kept apart here.

What was measured:
[1] = tested on: SKOV3 cells; assay: Inhibition of cellular proliferation (sulforhodamine B staining); conditions: for SKOV3 HCR (Hypoxic Cytotoxicity Ratio): fold change in intra-experimental IC50, 4 hours anoxia relative to oxic only
[2] = tested on: A431 cells; assay: as above; conditions: for A431 HCR (Hypoxic Cytotoxicity Ratio): fold change in intra-experimental IC50, 4 hours anoxia relative to oxic only
[3] = pulse radiolysis, determined against methylviologen
[4] = tested on: A431 tumours; conditions: A431 xenograft, q3dx4, intraperitoneal; for Drug related deaths: lactate buffer pH 4; for TGD (Tumour Growth Delay): % increase in time to RTV4 relative to control; for Weight Loss Nadir (%): mean nadir relative to day 0 weight
[5] = tested on: H1975 cells; assay: Inhibition of cellular proliferation (sulforhodamine B staining); conditions: for H1975 HCR (Hypoxic Cytotoxicity Ratio): fold change in intra-experimental IC50, 4 hours anoxia relative to oxic only
[6] = tested on: H1975 tumours; conditions: H1975 xenograft, q3dx4, intraperitoneal; for Drug related deaths: lactate buffer pH 4; for Weight Loss Nadir (%): mean nadir relative to day 0 weight
[7] = tested on: p44/42 MAPK (Erk1/2); assay: Inhibition of p44/42 MAPK (Erk1/2) phosphorylation in EGF-stimulated intact A431 cells (Western immunoblotting); assay type: cell-based, human
Experimental: (§1) A431 cells were seeded into 6 well plates (with αMEM+5% FCS). The following day, plates were washed once with serum-free medium and grown for 18 hours in serum-free medium (αMEM) before being exposed to a range of inhibitor or prodrug concentrations for 1 hour and then stimulated for 15 minutes with 100 ng/ml epidermal growth factor (EGF receptor ligand). Next cells were washed with ice cold PBS and lysed in modified RIPA buffer on ice (30 min). Lysates were vortexed and clarify by spinning before protein concentrations of samples was determined by BCA assay. […] All antibodies were diluted in 2% BSA TBS-Tween 0.1%. To detect phospho-EGFR (Tyr 1068) the monoclonal antibody (1:500; Cell Signalling #2234) was incubated overnight at 4° C. and binding was detected with goat-anti-Rabbit-IgG-HRP conjugated secondary antibody (1:5000; Santa Cruz #SC2054; 3 h RT). To detect downstream phospho-p44/42 MAPK(Erk 1/2) (Thr202/Tyr 204) the monoclonal antibody (Cell Signalling #4370) was used at a 1:500 dilution. The blot was then treated with Goat anti-rabbit IgG-HRP conjugated secondary antibody (Santa Cruz Biotechnology, Inc. sc-2054) for three hours at a ratio of 1:5000. To normalise for any inaccuracy in gel loading, each blot was probed with anti-β-actin antibody (Abacus ALS #MAB-1501R, 1:2000 dilution). The following day, the blot was treated with Goat anti-mouse IgG-HRP conjugated secondary antibody (Santa Cruz Biotechnology, Inc. sc-2055) for one hour at a 1:5000 ratio. Protein bands were visualized using Amersham ECL Plus Western Blotting Detection Reagent (GE Healthcare RPN2132). Densitometry was determined using Image J software. Values normalized to β-actin were plotted on SigmaPlot 11.0.

[8] = biological target: erbB1 (EGFR) (Homo sapiens, UniProt P00533); assay: Inhibition of erbB1 autophosphorylation in EGF-stimulated intact A431 cells (Western immunoblotting); assay type: cell-based; conditions: 1 hour treatment, phospho-EGFR (Tyr 1068), β-actin corrected
Experimental: as §1

[9] = read-out: Cellular Growth Inhibition IC50 SKOV3 Anoxic, initial 4 hours of the 24 hour exposure under anoxic conditions
[10] = read-out: Cellular Growth Inhibition IC50 SKOV3 Oxic, 24 hour exposure entirely under oxic conditions, washed, further 4 days
[11] = read-out: Cellular Growth Inhibition IC50 A431 Anoxic, initial 4 hours of the 24 hour exposure under anoxic conditions
[12] = read-out: Cellular Growth Inhibition IC50 A431 Oxic, 24 hour exposure entirely under oxic conditions, washed, further 4 days
[13] = read-out: Cellular Growth Inhibition IC50 H1975 Anoxic, initial 4 hours of the 24 hour exposure under anoxic conditions
[14] = read-out: Cellular Growth Inhibition IC50 H1975 Oxic, 24 hour exposure entirely under oxic conditions, washed, further 4 days

Chain of erbB1 (EGFR) (P00533 25-1210): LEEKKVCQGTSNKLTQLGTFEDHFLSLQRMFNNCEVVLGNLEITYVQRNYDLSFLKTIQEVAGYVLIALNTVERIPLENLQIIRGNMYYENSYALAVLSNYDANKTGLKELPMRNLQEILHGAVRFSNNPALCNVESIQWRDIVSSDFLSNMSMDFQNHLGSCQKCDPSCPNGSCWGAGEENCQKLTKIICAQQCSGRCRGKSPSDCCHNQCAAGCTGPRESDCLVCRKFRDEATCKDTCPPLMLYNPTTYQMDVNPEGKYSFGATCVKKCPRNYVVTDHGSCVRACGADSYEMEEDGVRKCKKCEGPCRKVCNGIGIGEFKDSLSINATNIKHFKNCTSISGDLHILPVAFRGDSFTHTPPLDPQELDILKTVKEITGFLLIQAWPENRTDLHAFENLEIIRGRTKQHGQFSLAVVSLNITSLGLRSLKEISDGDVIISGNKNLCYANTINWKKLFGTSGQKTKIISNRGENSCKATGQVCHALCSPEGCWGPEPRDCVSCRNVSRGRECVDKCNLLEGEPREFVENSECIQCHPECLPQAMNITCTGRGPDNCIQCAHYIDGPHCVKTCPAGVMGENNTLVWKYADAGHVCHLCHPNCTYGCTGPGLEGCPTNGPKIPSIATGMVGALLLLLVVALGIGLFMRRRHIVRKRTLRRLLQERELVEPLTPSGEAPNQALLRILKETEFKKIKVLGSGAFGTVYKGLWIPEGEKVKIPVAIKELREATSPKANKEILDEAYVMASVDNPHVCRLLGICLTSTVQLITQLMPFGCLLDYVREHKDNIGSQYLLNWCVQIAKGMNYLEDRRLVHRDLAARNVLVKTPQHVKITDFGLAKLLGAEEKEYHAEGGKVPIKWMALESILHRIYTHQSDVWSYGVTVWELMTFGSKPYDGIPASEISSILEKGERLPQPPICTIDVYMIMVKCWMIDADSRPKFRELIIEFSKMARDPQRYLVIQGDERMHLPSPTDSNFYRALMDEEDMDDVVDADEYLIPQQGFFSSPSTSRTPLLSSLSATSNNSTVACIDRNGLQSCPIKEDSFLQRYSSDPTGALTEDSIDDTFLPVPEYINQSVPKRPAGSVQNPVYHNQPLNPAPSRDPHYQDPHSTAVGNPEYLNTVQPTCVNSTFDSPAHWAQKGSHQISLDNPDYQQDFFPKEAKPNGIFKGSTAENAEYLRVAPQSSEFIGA

SMILES	SKOV3 HCR (Hypoxic Cytotoxicity Ratio) [1]	IC50 [1, 9] [nM]	IC50 [1, 10] [nM]	IC50 [2, 11] [nM]	IC50 [2, 12] [nM]	E(1)/V 1-electron reduction potential [3] [V]	Drug related deaths [4]	TGD (Tumour Growth Delay) [4] [%]	Weight Loss Nadir (%) [4] [%]	IC50 [5, 13] [nM]	IC50 [5, 14] [nM]	Drug related deaths [6]	Weight Loss Nadir (%) [6] [%]	H1975 HCR (Hypoxic Cytotoxicity Ratio) [5]	A431 HCR (Hypoxic Cytotoxicity Ratio) [2]	downstream p44/42 MAPK(Erk 1/2) phosphorylation (Thr202/Tyr 204), result in words ([7]; 1 hour treatment)	IC50 ([7]; Homo sapiens, A-431, 1 hour treatment, read-out: IC50 p44/42 MAPK(Erk 1/2) phosphorylation (Thr202/Tyr 204)) [nM]	IC50 [8] [nM]	TGD (Tumour Growth Delay) ([6]; % increase in time to RTV4 relative to control) [%]
Cn1cnc([N+](=O)[O-])c1C[N+](C)(C)C/C=C/C(=O)Nc1cc2c(Nc3ccc(Br)c(Cl)c3)ncnc2cn1.[Br-] [Compound 18, (2E)-4-{[4-(4-bromo-3-chloroanilino)pyrido[3,4-d]pyrimidin-6-yl]amino}-N,N-dimethyl-N-[(1-methyl-4-nitro-1H-imidazol-5-yl)methyl]-4-oxo-2-buten-1-ammonium bromide]	24	600	13000	12	500	−0.428	0	>250	−4.1 ± 0.4	200	13300								
Cn1cnc([N+](=O)[O-])c1C[N+](C)(C)C/C=C/C(=O)Nc1cc2c(Nc3ccc(OCc4cccc(Cl)c4)c(Cl)c3)ncnc2cn1 [Compound 12, (2E)-4-[(4-{3-chloro-4-[(3-chlorobenzyl)oxy]anilino}pyrido[3,4-d]pyrimidin-6-yl)amino]-N,N-dimethyl-N-[(1-methyl-4-nitro-1H-imidazol-5-yl)methyl]-4-oxo-2-buten-1-ammonium bromide]	26	8100	47000	370	2900					2400	36000	0	−7.8 ± 0.6	14					
C#Cc1cc(Nc2ncnc3cnc(NC(=O)/C=C/CN(C)C)cc23)ccc1F [Compound 8, (2E)-4-(dimethylamino)-N-[4-(3-ethynyl-4-fluoroanilino)pyrido[3,4-d]pyrimidin-6-yl]-2-butenamide]		1800		120						1400		0	−3.3 ± 3.0						
CN(C)C/C=C/C(=O)Nc1cc2c(Nc3ccc(OCc4cccc(Cl)c4)c(Cl)c3)ncnc2cn1 [Compound 1, (2E)-N-(4-{3-chloro-4-[(3-chlorobenzyl)oxy]anilino}pyrido[3,4-d]pyrimidin-6-yl)-4-(dimethylamino)-2-butenamide]		690		221						880		0	−3.6 ± 3.0						
CN(C)C/C=C/C(=O)Nc1cc2c(Nc3ccc(Cl)c(Cl)c3)ncnc2cn1 [Compound 4, (2E)-N-[4-(3,4-dichloroanilino)pyrido[3,4-d]pyrimidin-6-yl]-4-(dimethylamino)-2-butenamide]	0.9	550	360	15	9					560		0	−9.7 ± 4.0		0.9				
Cc1nc([N+](=O)[O-])c(C[N+](C)(C)C/C=C/C(=O)Nc2cc3c(Nc4ccc5c(cnn5Cc5cccc(F)c5)c4)ncnc3cn2)n1C [Compound 14, (2E)-N-[(1,2-dimethyl-4-nitro-1H-imidazol-5-yl)methyl]-4-[(4-{[1-(3-fluorobenzyl)-1H-indazol-5-yl]amino}pyrido[3,4-d]pyrimidin-6-yl)amino]-N,N-dimethyl-4-oxo-2-buten-1-ammonium bromide]		1100	32000	63	5700					1200	20000			26					
C#Cc1cc(Nc2ncnc3cnc(NC(=O)/C=C/C[N+](C)(C)Cc4c([N+](=O)[O-])ncn4C)cc23)ccc1F [Compound 20, (2E)-4-{[4-(3-ethynyl-4-fluoroanilino)pyrido[3,4-d]pyrimidin-6-yl]amino}-N,N-dimethyl-N-[(1-methyl-4-nitro-1H-imidazol-5-yl)methyl]-4-oxo-2-buten-1-ammonium bromide]	15	4400	194000	130	3900					3300	118000	0	−4.4 ± 2.3						
CN(C)C/C=C/C(=O)Nc1cc2c(Nc3ccc(OCc4ccccn4)c(Cl)c3)ncnc2cn1 [Compound 3, (2E)-N-{4-[3-chloro-4-(2-pyridinylmethoxy)anilino]pyrido[3,4-d]pyrimidin-6-yl}-4-(dimethylamino)-2-butenamide]		1130		140						730		0	−4.7 ± 0.4	0.8		coordinate loss	179	48.3	
CN(C)C/C=C/C(=O)Nc1cc2c(Nc3ccc4c(cnn4Cc4cccc(F)c4)c3)ncnc2cn1 [Compound 2, (2E)-4-(dimethylamino)-N-(4-{[1-(3-fluorobenzyl)-1H-indazol-5-yl]amino}pyrido[3,4-d]pyrimidin-6-yl)-2-butenamide]		900		90						1000		0	−7.9 ± 0.6		1.0				
CN(C)C/C=C/C(=O)Nc1cc2c(Nc3ccc(Br)c(Br)c3)ncnc2cn1 [Compound 7, (2E)-N-[4-(3,4-dibromoanilino)pyrido[3,4-d]pyrimidin-6-yl]-4-(dimethylamino)-2-butenamide]		600	370	8	5					270	180	1	−4.9 ± 2.4	1.0	0.8				
Cn1cnc([N+](=O)[O-])c1C[N+](C)(C)C/C=C/C(=O)Nc1cc2c(Nc3ccc(Br)c(Br)c3)ncnc2cn1.[Br-] [Compound 19, (2E)-4-{[4-(3,4-dibromoanilino)pyrido[3,4-d]pyrimidin-6-yl]amino}-N,N-dimethyl-N-[(1-methyl-4-nitro-1H-imidazol-5-yl)methyl]-4-oxo-2-buten-1-ammonium bromide]		420	29000	25	420	−0.425				230	15000	1	−2.7 ± 0.6						138
C#Cc1cc(Nc2ncnc3cnc(NC(=O)/C=C/CN(C)C)cc23)ccc1Cl [Compound 9, (2E)-N-[4-(4-chloro-3-ethynylanilino)pyrido[3,4-d]pyrimidin-6-yl]-4-(dimethylamino)-2-butenamide]		960		16			0	>250	−1.7 ± 1.7	560				0.5					
C#Cc1cc(Nc2ncnc3cnc(NC(=O)/C=C/C[N+](C)(C)Cc4c([N+](=O)[O-])ncn4C)cc23)ccc1Cl [Compound 21, (2E)-4-{[4-(4-chloro-3-ethynylanilino)pyrido[3,4-d]pyrimidin-6-yl]amino}-N,N-dimethyl-N-[(1-methyl-4-nitro-1H-imidazol-5-yl)methyl]-4-oxo-2-buten-1-ammonium bromide]		1130	47000	< 10	850		0	>250	−4.3 ± 2.3	600	18000			18					
